Source: ChEMBL document CHEMBL4649991
Values joined by “and” are separate entries in the source; they are usually repeats but may differ in a detail not shown here. Identical values can stand only once.

What was measured:
[1] = biological target: Bromodomain-containing protein 4 (Homo sapiens) (UniProt O60885); assay: Alphascreen assay. Domain start/stop: N44-E168; conditions: Compound concentration 25.0 uM, Protein concentration 6.25 uM
[2] = biological target: Bromodomain-containing protein 9 (Homo sapiens) (UniProt Q9H8M2); assay: Alphascreen assay. Domain start/stop: L14-Q143; conditions: Compound concentration 4.0 uM, Protein concentration 5.0 uM
Peregrin (Homo sapiens) [3] = biological target: T1, Peregrin (Homo sapiens) (UniProt P55201); assay: Alphascreen assay. Domain start/stop: M626-G740; conditions: Protein concentration 50.0 uM
T1 sequence (whole entry): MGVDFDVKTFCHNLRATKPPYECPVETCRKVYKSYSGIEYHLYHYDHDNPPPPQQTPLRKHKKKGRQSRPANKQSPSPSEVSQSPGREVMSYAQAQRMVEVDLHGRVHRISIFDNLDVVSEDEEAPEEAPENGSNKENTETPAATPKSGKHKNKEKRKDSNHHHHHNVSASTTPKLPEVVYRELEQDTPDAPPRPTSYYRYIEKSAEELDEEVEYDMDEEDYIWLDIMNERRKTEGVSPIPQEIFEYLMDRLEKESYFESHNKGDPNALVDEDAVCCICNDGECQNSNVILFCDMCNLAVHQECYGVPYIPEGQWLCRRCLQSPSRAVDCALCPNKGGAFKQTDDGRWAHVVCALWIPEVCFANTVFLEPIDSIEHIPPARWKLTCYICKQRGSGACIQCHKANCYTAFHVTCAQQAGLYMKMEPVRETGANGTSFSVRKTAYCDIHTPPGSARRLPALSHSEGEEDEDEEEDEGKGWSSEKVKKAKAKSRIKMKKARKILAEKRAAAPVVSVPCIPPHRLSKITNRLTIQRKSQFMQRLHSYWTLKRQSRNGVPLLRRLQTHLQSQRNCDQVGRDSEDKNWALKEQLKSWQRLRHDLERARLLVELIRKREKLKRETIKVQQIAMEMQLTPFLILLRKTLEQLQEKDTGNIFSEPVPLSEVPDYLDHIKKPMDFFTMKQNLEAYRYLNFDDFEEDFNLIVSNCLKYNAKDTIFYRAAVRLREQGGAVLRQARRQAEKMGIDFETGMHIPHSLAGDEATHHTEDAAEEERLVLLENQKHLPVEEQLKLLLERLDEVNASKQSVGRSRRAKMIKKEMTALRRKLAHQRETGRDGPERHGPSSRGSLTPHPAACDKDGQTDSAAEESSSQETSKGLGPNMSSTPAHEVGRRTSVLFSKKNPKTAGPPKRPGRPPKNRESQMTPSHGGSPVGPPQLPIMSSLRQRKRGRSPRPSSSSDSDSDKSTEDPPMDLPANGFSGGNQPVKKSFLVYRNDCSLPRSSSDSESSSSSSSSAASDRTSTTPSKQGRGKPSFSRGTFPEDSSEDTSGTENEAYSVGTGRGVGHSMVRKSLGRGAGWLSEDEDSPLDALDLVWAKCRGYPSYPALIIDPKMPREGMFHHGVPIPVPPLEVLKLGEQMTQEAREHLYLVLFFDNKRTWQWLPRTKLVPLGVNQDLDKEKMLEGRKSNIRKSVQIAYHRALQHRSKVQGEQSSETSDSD

[4] = biological target: E3 ubiquitin-protein ligase TRIM33 (Homo sapiens) (UniProt Q9UPN9); assay: Thermal Shift Assay. Domain start/stop: D882-P1073; conditions: Compound concentration 10.0 uM, Protein concentration 2.0 uM
[5] = biological target: Nucleosome-remodeling factor subunit BPTF (Homo sapiens) (UniProt Q12830)
Description: Alphascreen assay. Domain start/stop: S2791-H2911

[6] = biological target: Chromatin remodeling regulator CECR2 (Homo sapiens) (UniProt Q9BXF3); conditions: Compound concentration 4.0 uM, Protein concentration 19.0 uM
[7] = biological target: PH-interacting protein (Homo sapiens) (UniProt Q8WWQ0); conditions: Compound concentration 50.0 uM, Protein concentration 0.025 uM
[8] = biological target: Histone-lysine N-methyltransferase ASH1L (Homo sapiens) (UniProt Q9NR48); conditions: Compound concentration 10.0 uM, Protein concentration 2.0 uM
[9] = biological target: ATPase family AAA domain-containing protein 2 (Homo sapiens) (UniProt Q6PL18); conditions: Compound concentration 10.0 uM, Protein concentration 2.0 uM
[10] = biological target: ATPase family AAA domain-containing protein 2B (Homo sapiens) (UniProt Q9ULI0); conditions: Compound concentration 10.0 uM, Protein concentration 2.0 uM
[11] = biological target: Bromodomain adjacent to zinc finger domain protein 1A (Homo sapiens) (UniProt Q9NRL2); conditions: Compound concentration 10.0 uM, Protein concentration 2.0 uM
[12] = biological target: Tyrosine-protein kinase BAZ1B (Homo sapiens) (UniProt Q9UIG0); conditions: Compound concentration 10.0 uM, Protein concentration 2.0 uM
[13] = biological target: Bromodomain adjacent to zinc finger domain protein 2A (Homo sapiens) (UniProt Q9UIF9); conditions: Compound concentration 10.0 uM, Protein concentration 2.0 uM
[14] = biological target: Bromodomain adjacent to zinc finger domain protein 2B (Homo sapiens) (UniProt Q9UIF8); conditions: Compound concentration 10.0 uM, Protein concentration 2.0 uM
[15] = biological target: Nucleosome-remodeling factor subunit BPTF (Homo sapiens) (UniProt Q12830); conditions: Compound concentration 10.0 uM, Protein concentration 2.0 uM
[16] = biological target: Bromodomain-containing protein 1 (Homo sapiens) (UniProt O95696); conditions: Compound concentration 10.0 uM, Protein concentration 2.0 uM
[17] = biological target: Bromodomain-containing protein 2 (Homo sapiens) (UniProt P25440); conditions: Compound concentration 10.0 uM, Protein concentration 2.0 uM
[18] = biological target: Bromodomain-containing protein 2 (Homo sapiens) (UniProt P25440); conditions: Compound concentration 10.0 uM, Protein concentration 2.0 uM; remark: listed apart in the source
[19] = biological target: Bromodomain-containing protein 3 (Homo sapiens) (UniProt Q15059); conditions: Compound concentration 10.0 uM, Protein concentration 2.0 uM
[20] = biological target: Bromodomain-containing protein 3 (Homo sapiens) (UniProt Q15059); conditions: Compound concentration 10.0 uM, Protein concentration 2.0 uM; remark: listed apart in the source
[21] = biological target: Bromodomain-containing protein 4 (Homo sapiens) (UniProt O60885); conditions: Compound concentration 10.0 uM, Protein concentration 2.0 uM
[22] = biological target: Bromodomain-containing protein 7 (Homo sapiens) (UniProt Q9NPI1); conditions: Compound concentration 10.0 uM, Protein concentration 2.0 uM
[23] = biological target: Bromodomain-containing protein 9 (Homo sapiens) (UniProt Q9H8M2); conditions: Compound concentration 10.0 uM, Protein concentration 2.0 uM
[24] = biological target: Bromodomain testis-specific protein (Homo sapiens) (UniProt Q58F21); conditions: Compound concentration 10.0 uM, Protein concentration 2.0 uM
[25] = biological target: Bromodomain testis-specific protein (Homo sapiens) (UniProt Q58F21); conditions: Compound concentration 10.0 uM, Protein concentration 2.0 uM; remark: listed apart in the source
Peregrin (Homo sapiens) [26] = biological target: T1, Peregrin (Homo sapiens); conditions: Compound concentration 10.0 uM, Protein concentration 2.0 uM
[27] = biological target: Bromodomain and PHD finger-containing protein 3 (Homo sapiens) (UniProt Q9ULD4); conditions: Compound concentration 10.0 uM, Protein concentration 2.0 uM
[28] = biological target: Bromodomain and WD repeat-containing protein 1 (Homo sapiens) (UniProt Q9NSI6); conditions: Compound concentration 10.0 uM, Protein concentration 2.0 uM
[29] = biological target: Bromodomain and WD repeat-containing protein 3 (Homo sapiens) (UniProt Q6RI45); conditions: Compound concentration 10.0 uM, Protein concentration 2.0 uM
[30] = biological target: Chromatin remodeling regulator CECR2 (Homo sapiens) (UniProt Q9BXF3); conditions: Compound concentration 10.0 uM, Protein concentration 2.0 uM
[31] = biological target: Chromatin remodeling regulator CECR2 (Homo sapiens) (UniProt Q9BXF3); conditions: Compound concentration 10.0 uM, Protein concentration 2.0 uM; remark: listed apart in the source
[32] = biological target: CREB-binding protein (Homo sapiens) (UniProt Q92793); conditions: Compound concentration 10.0 uM, Protein concentration 2.0 uM
[33] = biological target: Histone acetyltransferase p300 (Homo sapiens) (UniProt Q09472); conditions: Compound concentration 10.0 uM, Protein concentration 2.0 uM
[34] = biological target: Histone acetyltransferase KAT2A (Homo sapiens) (UniProt Q92830); conditions: Compound concentration 10.0 uM, Protein concentration 2.0 uM
[35] = biological target: Histone acetyltransferase KAT2B (Homo sapiens) (UniProt Q92831); conditions: Compound concentration 10.0 uM, Protein concentration 2.0 uM
[36] = biological target: Histone-lysine N-methyltransferase 2A (Homo sapiens) (UniProt Q03164); conditions: Compound concentration 10.0 uM, Protein concentration 2.0 uM
[37] = biological target: Protein polybromo-1 (Homo sapiens) (UniProt Q86U86); conditions: Compound concentration 10.0 uM, Protein concentration 2.0 uM
[38] = biological target: Protein polybromo-1 (Homo sapiens) (UniProt Q86U86); conditions: Compound concentration 10.0 uM, Protein concentration 2.0 uM; remark: listed apart in the source
[39] = biological target: Protein polybromo-1 (Homo sapiens) (UniProt Q86U86); conditions: Compound concentration 10.0 uM, Protein concentration 2.0 uM; remark: listed apart in the source
[40] = biological target: Protein polybromo-1 (Homo sapiens) (UniProt Q86U86); conditions: Compound concentration 10.0 uM, Protein concentration 2.0 uM; remark: listed apart in the source
[41] = biological target: Protein polybromo-1 (Homo sapiens) (UniProt Q86U86); conditions: Compound concentration 10.0 uM, Protein concentration 2.0 uM; remark: listed apart in the source
[42] = biological target: Protein polybromo-1 (Homo sapiens) (UniProt Q86U86); conditions: Compound concentration 10.0 uM, Protein concentration 2.0 uM; remark: listed apart in the source
[43] = biological target: PH-interacting protein (Homo sapiens) (UniProt Q8WWQ0); conditions: Compound concentration 10.0 uM, Protein concentration 2.0 uM
[44] = biological target: SWI/SNF-related matrix-associated actin-dependent regulator of chromatin subfamily A member 2 (Homo sapiens) (UniProt P51531); conditions: Compound concentration 10.0 uM, Protein concentration 2.0 uM
[45] = biological target: SWI/SNF-related matrix-associated actin-dependent regulator of chromatin subfamily A member 4 (Homo sapiens) (UniProt P51532); conditions: Compound concentration 10.0 uM, Protein concentration 2.0 uM
[46] = biological target: Nuclear body protein SP140 (Homo sapiens) (UniProt Q13342); conditions: Compound concentration 10.0 uM, Protein concentration 2.0 uM
[47] = biological target: Nuclear body protein SP140-like protein (Homo sapiens) (UniProt Q9H930); conditions: Compound concentration 10.0 uM, Protein concentration 2.0 uM
[48] = biological target: Transcription initiation factor TFIID subunit 1 (Homo sapiens) (UniProt P21675); conditions: Compound concentration 10.0 uM, Protein concentration 2.0 uM
[49] = biological target: Transcription initiation factor TFIID subunit 1 (Homo sapiens) (UniProt P21675); conditions: Compound concentration 10.0 uM, Protein concentration 2.0 uM; remark: listed apart in the source
[50] = biological target: Transcription initiation factor TFIID subunit 1-like (Homo sapiens) (UniProt Q8IZX4); conditions: Compound concentration 10.0 uM, Protein concentration 2.0 uM
[51] = biological target: Transcription initiation factor TFIID subunit 1-like (Homo sapiens) (UniProt Q8IZX4); conditions: Compound concentration 10.0 uM, Protein concentration 2.0 uM; remark: listed apart in the source
[52] = biological target: Transcription intermediary factor 1-alpha (Homo sapiens) (UniProt O15164); conditions: Compound concentration 10.0 uM, Protein concentration 2.0 uM
[53] = biological target: Transcription intermediary factor 1-beta (Homo sapiens) (UniProt Q13263); conditions: Compound concentration 10.0 uM, Protein concentration 2.0 uM
Peregrin (Homo sapiens) [54] = biological target: T1, Peregrin (Homo sapiens); conditions: Compound concentration 10.0 uM, Protein concentration 2.0 uM; remark: listed apart in the source

Chain of Protein polybromo-1 (Homo sapiens) (Q86U86 whole entry): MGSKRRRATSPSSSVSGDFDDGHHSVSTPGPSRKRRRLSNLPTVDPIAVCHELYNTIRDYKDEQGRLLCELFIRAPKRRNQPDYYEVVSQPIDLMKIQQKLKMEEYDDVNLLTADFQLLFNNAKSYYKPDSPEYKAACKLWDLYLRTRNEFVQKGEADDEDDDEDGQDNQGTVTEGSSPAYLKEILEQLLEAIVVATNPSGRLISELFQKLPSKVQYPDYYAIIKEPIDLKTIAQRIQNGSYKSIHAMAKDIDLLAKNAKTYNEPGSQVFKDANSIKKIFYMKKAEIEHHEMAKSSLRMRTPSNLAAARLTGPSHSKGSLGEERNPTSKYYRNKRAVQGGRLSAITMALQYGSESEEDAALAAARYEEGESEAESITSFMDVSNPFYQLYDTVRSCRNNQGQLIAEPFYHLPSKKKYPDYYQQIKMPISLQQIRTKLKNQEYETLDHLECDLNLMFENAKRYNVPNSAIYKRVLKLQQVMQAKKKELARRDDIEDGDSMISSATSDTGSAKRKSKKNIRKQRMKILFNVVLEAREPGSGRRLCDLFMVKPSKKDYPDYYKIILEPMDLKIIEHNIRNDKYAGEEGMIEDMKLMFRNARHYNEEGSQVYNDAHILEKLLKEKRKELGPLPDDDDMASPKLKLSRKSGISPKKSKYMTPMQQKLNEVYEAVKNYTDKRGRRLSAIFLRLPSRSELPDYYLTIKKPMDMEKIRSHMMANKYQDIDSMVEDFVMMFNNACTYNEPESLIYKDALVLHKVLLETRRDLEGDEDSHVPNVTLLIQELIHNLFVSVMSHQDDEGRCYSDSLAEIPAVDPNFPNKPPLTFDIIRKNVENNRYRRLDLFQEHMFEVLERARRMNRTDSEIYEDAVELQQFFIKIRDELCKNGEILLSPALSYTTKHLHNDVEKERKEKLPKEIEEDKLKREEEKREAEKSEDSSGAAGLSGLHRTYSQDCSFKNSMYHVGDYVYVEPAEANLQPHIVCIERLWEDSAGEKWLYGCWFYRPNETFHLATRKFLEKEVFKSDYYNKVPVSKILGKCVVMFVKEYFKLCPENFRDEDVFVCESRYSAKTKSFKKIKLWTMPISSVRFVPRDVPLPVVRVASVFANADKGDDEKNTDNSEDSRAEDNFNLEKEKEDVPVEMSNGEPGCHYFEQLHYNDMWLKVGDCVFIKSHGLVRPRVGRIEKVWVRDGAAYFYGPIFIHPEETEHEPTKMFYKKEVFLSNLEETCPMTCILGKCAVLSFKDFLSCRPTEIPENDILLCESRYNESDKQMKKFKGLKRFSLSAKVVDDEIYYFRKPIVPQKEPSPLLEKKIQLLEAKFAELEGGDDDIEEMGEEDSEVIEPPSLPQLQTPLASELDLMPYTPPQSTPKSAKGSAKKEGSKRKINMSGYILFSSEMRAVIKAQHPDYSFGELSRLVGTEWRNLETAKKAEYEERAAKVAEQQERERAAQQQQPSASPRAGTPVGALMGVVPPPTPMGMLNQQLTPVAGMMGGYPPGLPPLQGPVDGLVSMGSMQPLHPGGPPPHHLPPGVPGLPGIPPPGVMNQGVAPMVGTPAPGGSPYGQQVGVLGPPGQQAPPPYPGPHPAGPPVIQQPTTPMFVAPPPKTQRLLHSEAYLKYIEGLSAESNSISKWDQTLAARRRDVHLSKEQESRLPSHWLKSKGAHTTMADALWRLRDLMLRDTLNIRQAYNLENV
Chain of Chromatin remodeling regulator CECR2 (Homo sapiens) (Q9BXF3 whole entry, looked up): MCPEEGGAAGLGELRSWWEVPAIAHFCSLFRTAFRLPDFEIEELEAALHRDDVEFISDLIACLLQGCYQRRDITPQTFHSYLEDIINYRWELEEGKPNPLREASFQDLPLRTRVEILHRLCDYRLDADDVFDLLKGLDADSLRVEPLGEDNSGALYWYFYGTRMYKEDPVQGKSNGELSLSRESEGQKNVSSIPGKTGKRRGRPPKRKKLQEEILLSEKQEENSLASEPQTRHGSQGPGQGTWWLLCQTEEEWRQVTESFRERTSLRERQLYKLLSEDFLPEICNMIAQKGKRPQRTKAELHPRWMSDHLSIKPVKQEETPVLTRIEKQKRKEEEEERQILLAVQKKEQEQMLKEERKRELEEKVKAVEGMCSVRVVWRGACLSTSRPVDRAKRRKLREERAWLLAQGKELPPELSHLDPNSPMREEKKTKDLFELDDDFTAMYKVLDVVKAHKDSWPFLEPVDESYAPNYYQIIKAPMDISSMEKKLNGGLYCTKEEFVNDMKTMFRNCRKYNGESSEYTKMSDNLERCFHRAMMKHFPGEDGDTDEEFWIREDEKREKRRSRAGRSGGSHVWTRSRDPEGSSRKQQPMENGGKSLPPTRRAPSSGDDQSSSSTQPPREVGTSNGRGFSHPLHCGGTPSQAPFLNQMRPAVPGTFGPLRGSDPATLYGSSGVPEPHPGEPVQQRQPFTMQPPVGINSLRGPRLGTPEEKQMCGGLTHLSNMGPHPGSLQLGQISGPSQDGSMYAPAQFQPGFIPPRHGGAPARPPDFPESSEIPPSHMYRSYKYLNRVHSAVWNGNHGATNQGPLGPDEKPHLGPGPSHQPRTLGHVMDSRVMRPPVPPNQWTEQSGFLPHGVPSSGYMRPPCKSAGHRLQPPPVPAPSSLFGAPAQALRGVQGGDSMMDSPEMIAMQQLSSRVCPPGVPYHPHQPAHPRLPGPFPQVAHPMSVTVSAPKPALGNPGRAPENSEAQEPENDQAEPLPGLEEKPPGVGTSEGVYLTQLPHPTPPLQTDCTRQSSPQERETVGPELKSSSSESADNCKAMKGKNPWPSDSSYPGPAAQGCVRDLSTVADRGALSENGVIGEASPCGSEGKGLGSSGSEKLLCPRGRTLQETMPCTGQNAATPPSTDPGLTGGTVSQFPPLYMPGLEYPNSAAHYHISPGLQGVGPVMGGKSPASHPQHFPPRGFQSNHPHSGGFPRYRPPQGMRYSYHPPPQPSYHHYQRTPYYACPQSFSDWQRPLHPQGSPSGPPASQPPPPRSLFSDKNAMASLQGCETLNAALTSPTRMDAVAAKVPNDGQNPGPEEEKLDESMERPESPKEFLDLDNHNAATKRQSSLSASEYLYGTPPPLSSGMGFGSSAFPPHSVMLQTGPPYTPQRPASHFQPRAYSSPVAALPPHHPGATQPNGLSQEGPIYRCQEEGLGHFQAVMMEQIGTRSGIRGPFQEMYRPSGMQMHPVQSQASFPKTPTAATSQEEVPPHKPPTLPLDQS
Chain of Bromodomain-containing protein 9 (Homo sapiens) (Q9H8M2 whole entry): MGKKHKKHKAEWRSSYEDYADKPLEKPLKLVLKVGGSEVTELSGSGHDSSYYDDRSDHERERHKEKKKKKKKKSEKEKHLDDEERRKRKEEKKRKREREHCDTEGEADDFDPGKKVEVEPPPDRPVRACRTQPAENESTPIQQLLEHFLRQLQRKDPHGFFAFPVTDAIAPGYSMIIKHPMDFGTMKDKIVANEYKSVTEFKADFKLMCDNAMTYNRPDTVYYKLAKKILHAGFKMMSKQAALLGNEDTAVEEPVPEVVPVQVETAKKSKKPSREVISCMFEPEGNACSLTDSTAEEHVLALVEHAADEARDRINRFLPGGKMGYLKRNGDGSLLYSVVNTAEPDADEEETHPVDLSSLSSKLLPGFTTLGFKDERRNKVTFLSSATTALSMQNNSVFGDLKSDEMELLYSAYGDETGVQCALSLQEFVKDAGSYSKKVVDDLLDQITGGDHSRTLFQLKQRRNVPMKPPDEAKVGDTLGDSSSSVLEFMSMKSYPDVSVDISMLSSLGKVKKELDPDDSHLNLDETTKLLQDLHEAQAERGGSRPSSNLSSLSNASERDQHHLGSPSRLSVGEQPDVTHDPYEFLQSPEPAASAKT
Chain of Bromodomain-containing protein 2 (Homo sapiens) (P25440 whole entry, looked up): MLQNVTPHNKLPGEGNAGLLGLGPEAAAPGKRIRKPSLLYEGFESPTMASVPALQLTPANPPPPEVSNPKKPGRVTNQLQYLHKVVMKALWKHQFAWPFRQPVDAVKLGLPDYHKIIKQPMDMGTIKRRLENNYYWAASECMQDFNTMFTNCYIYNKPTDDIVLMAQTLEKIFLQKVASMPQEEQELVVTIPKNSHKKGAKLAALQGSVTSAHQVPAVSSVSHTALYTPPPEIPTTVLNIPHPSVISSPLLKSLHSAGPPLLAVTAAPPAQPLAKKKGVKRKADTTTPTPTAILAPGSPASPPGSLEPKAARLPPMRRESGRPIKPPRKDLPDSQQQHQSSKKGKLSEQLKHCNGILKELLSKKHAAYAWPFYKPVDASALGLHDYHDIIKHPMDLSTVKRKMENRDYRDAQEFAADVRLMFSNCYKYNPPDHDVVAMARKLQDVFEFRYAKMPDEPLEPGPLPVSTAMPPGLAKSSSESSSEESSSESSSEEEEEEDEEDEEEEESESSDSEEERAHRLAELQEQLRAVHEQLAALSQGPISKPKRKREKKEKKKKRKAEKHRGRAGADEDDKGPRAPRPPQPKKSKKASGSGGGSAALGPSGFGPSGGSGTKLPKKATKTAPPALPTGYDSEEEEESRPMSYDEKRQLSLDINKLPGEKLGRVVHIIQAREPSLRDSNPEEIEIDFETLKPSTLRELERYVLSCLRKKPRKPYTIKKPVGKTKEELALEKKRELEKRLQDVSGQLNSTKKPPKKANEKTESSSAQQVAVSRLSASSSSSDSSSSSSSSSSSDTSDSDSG

inhibition [1]: 4.77%
inhibition [2]: 95.6%
inhibition (Peregrin (Homo sapiens) [3]; Compound concentration 1.25 uM): 1.84%
inhibition (Peregrin (Homo sapiens) [3]; Compound concentration 4.0 uM): 3.88%
ΔTm [4]: 0.14 °C
inhibition ([5]; Compound concentration 0.25 uM, Protein concentration 19.0 uM): 3.67%
inhibition ([5]; Compound concentration 0.25 uM, Protein concentration 20.0 uM): 7.02%
inhibition ([5]; Compound concentration 4.0 uM, Protein concentration 19.0 uM): 7.64%
inhibition [6]: 10.7%
inhibition [7]: 1.4% and 14.2%
ΔTm [8]: 0.17 °C
ΔTm [9]: 0.02 °C
ΔTm [10]: 0.35 °C
ΔTm [11]: -0.09 °C
ΔTm [12]: -0.45 °C
ΔTm [13]: -0.38 °C
ΔTm [14]: -0.02 °C
ΔTm [15]: 1.82 °C
ΔTm [16]: 0.01 °C
ΔTm [17]: 0.38 °C
ΔTm [18]: -0.14 °C
ΔTm [19]: 0.15 °C
ΔTm [20]: -0.26 °C
ΔTm [21]: -0.08 °C
ΔTm [22]: 10.1 °C and 10.7 °C
ΔTm [23]: 5.28 °C and 8.25 °C and 6.82 °C
ΔTm [24]: 0.06 °C
ΔTm [25]: 0.17 °C
ΔTm (Peregrin (Homo sapiens) [26]): -0.09 °C and 0.15 °C
ΔTm [27]: -0.05 °C
ΔTm [28]: -0.43 °C
ΔTm [29]: 0.82 °C
ΔTm [30]: 0.69 °C
ΔTm [31]: 0.17 °C
ΔTm [32]: 0.17 °C and -0.28 °C
ΔTm [33]: 0.03 °C
ΔTm [34]: -0.21 °C
ΔTm [35]: 0.09 °C
ΔTm [36]: 0.6 °C
ΔTm [37]: 0.15 °C and 0.13 °C
ΔTm [38]: -0.12 °C
ΔTm [39]: 0.16 °C
ΔTm [40]: 0.01 °C
ΔTm [41]: 0.76 °C
ΔTm [42]: 0.14 °C
ΔTm [43]: -0.48 °C
ΔTm [44]: 0.44 °C
ΔTm [45]: 0.16 °C
ΔTm [46]: 0.44 °C
ΔTm [47]: 0.96 °C
ΔTm [48]: 0.33 °C
ΔTm [49]: 1.22 °C
ΔTm [50]: 0.27 °C
ΔTm [51]: 0.24 °C
ΔTm [52]: -0.09 °C
ΔTm [53]: 0.2 °C
ΔTm (Peregrin (Homo sapiens) [54]): -0.19 °C
Compound: Cc1cc(=O)n(C)c2cc(N3C(=O)CC[C@@H](NS(=O)(=O)CC(C)C)[C@@H]3c3ccc(Cl)cc3)ccc12
